Experimental data taken from paper PMC8497620, “Structure and inhibition of Cryptococcus neoformans sterylglucosidase to develop antifungal agents” (Nature Communications, 2021).
Values joined by “and” are separate entries in the source; they are usually repeats but may differ in a detail not shown here. Equal entries are not always repeated.

How the values were obtained:
C. neoformans Sgl1 [1] = biological target: T1, C. neoformans Sgl1 (Cryptococcus neoformans var. grubii, UniProt J9W473); assay: Kinetic evaluation of erg-glc and C6-NBD-GlcCer hydrolysis by Sgl1 (Triton X-100 mixed micelles, HPLC); format: biochemical; settings: for Km, Michaelis-Menten best-fit value / Vmax, Michaelis-Menten best-fit value, Turnover: source data Fig 1d; for KM: substrate of Sgl1, Triton X-100 mixed micelles, 37 °C
Method: A 50 μL volume of Cn Sgl1 wild type and 50 μL of mixed micelles of lipid and Triton X-100 in 50 mM Bis-Tris buffer with 150 mM NaCl, 5 mM βME, and 5 mM DTT were mixed and incubated at 37 °C for 10 min (erg-glc, Avanti Polar Lipids) and 1 h (C6-NBD-glcCer, Matreya). For the substrate erg-glc the amount of protein was 5 ng. 150 ng protein was used for reactions with C6-NBD-GlcCer. After the incubation period, each reaction was quenched with a 2:1 chloroform:methanol solution and the organic phase was collected and dried. Then, the lipid content was resuspended in 50 μL methanol and applied to HPLC (Agilent Technologies). Total erg-glc and ergosterol was detected using absorbance at 282 nm on a C-8 column with a flow rate of 0.5 ml/min in methanol/water 90:10 ratio buffered with 1 mM ammonium formate and 0.2% formic acid. A 85:15 ratio of the same eluent was used for C6-NBD-GlcCer and C6-NBD-ceramide monitoring the fluorescence at 470/530 nm excitation/emission. The total area of product was normalized by the total area of its respective substrate.

C. neoformans Sgl1 [2] = biological target: T1, C. neoformans Sgl1; assay: Sgl1 inhibition with res-glp substrate (HTS, single-compound dose-response); format: biochemical; settings: res-glp as substrate (100 µM), primary screen; read-out: IC50 against Sgl1
Method: (§1) Resorufin-3β-D-glucopyranoside (res-glp, Sigma-Aldrich) enzyme kinetic assays were performed according to methods described by Urban et al.[16] with modifications. Reaction buffer contained 50 mM citric acid, 176 mM K2HPO4, pH 6, 0.01% Tween-20, and 10 mM sodium taurocholate. The reactions were carried out in black 96-well plates using 20 ng of enzyme with 100 μM res-glp substrate. In all, 10 μL/well of res-glp substrate was added to each well and the reaction was initiated by adding 20 μL enzyme (20 ng). After incubation at 37 °C for 30–40 min, the fluorescence was read at an excitation of 570 (±10) nm and an emission of 610 (±10) nm on a VersaMax™ Microplate Reader from Molecular Devices. A standard curve was prepared with serial dilutions of the free fluorophore, resorufin, in the same volume of assay buffer.
A ChemBridge DIVERSet-CL library (San Diego, CA) containing 50,000 compounds was screened to identify small molecules that inhibit C. neoformans Sgl1. The library was prepared in a 96-well plate format containing a cocktail of 10 compounds per well at 1 mM each in 100% DMSO. The cocktail plates were first diluted to 100 μM each (1:10 dilution in Dulbecco’s phosphate-buffered saline, DPBS) resulting in 10% DMSO. In order to screen the compound cocktails at […] in 1% DMSO in a final reaction volume of 30 μL an aliquot of 3 μL was added to 17 μL of buffer containing 20 ng of enzyme and the reaction was started adding 10 μL of 100 μM res-glp. A negative control without enzyme and positive controls with and without DMSO were prepared. The plates were incubated at 37 °C for 40 min.
The Z′-factor was used for the assessment of the efficiency of the HTS assay for each individual plate. Values greater than 0.5 has been considered as an indicator of an excellent screening assay quality.

[3] = test system: human lung epithelial cancer cell line A549; settings: A549 cells, 24 h, MTT
Method: The cells were maintained in Dulbecco’s modified eagle medium containing 10% fetal bovine serum and 1% penicillin–streptomycin. At passage 11, 10^5 cells were transferred into each well of 96-well plates and cultured for 18–24 h for the cells to adhere to the well surface. After, the medium was removed and a fresh medium containing the selected compounds at a concentration range of 1–512 μM were added to the wells. Controls with equivalent serial concentrations of DMSO were also evaluated and compared with a control without DMSO. The plate was incubated at 37 °C with 5% CO2. After 24 h, the supernatant was removed and 50 μL of 5 mg/mL 3-(4,5-dimethylthiazol-2-yl)-2,5-diphenyltetrazoliumbromide (MTT) solution in phosphate-buffered saline (PBS) was added to each well. The plates were incubated for an additional 4 h and the formazan crystals formed inside the cell was dissolved by adding 50 μL DMSO.

C. neoformans Sgl1 [4] = assay: Resorufin-3β-D-glucopyranoside enzyme kinetic assay and HTS assay parameters; format: biochemical, Cryptococcus neoformans; settings: for Picomol of resorufin produced: time 20 min, 8 replicates
Method: as §1, with “buffer. All reactions were linear with respect to time and protein concentration and the pH, temperature, and dimethyl sulfoxide (DMSO) optimal tolerance was verified.” for “buffer.”
Supplementary Figure 6. High-throughput screening assay parameters. a. Resorufin 3β-D-glucopyranoside (res-glp) hydrolysis by Sgl1 releases the fluorescent product resorufin and glucose. b. Detection linearity of the system. c. Temperature evaluation of Sgl1 activity (n=6). d.
Reaction dependence on pH (n=4). e. DMSO tolerance (n=6). f. Enzyme concentration linearity (n=4). The reaction is linear up to 0.4 pmol of Sgl1 in presence of the substrate res-glp (100 µM). Data presented as mean values +/- SD of 2-3 independent experiments performed in duplicate (c-f). g.Time linearity until 50 min (n=4). h. Eight substrate concentrations tested with 0.2 pmol of Sgl1 until 20 min. i. Kinetic curve of Sgl1 (n=4). Error bars represent standard deviation of four independent experiments performed in technical duplicates. j. Kinetic parameters of Sgl1 reaction with res-glp.
(1 picture or pasted object on this page, not shown here)

T1 sequence (J9W473 entry or part of it): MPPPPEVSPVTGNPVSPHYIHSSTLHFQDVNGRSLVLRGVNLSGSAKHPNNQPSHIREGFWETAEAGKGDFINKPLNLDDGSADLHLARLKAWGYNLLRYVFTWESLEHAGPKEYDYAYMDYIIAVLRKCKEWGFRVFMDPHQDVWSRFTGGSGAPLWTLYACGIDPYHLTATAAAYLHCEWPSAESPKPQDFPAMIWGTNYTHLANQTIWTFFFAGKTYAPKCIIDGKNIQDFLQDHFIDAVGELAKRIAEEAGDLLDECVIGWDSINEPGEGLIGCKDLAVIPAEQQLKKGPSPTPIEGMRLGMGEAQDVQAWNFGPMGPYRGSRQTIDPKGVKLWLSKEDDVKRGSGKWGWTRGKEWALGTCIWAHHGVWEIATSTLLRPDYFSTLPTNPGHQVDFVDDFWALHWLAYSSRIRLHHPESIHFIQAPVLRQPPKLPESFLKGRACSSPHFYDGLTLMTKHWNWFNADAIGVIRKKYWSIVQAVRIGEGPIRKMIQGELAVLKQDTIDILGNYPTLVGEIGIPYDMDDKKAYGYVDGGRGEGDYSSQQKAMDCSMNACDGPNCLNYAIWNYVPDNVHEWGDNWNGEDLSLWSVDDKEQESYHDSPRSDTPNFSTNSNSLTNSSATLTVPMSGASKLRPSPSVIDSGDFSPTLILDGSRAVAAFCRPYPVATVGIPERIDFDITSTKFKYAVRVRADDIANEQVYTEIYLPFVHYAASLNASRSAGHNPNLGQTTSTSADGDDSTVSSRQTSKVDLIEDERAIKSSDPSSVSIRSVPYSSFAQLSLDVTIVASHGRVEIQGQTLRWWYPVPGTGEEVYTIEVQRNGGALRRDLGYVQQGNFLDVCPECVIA

## CCCCCCCCCCCCCC=CC(O)C(COC1OC(CO)C(O)C(O)C1O)NC(=O)CCCCCNc1ccc([N+](=O)[O-])c2nonc12 (stereo not drawn) [C6-NBD-GlcCer, C6-NBD-glucosylceramide]
C. neoformans Sgl1 [1]; 0.3 mol% C6-NBD-GlcCer
  Turnover (mol C6-NBD-Ceramide / sec/ mol enzyme): 0.0009 mol C6-NBD-Ceramide / sec/ mol enzyme and 0.0010 mol C6-NBD-Ceramide / sec/ mol enzyme
C. neoformans Sgl1 [1]; 0.7 mol% C6-NBD-GlcCer
  Turnover (mol C6-NBD-Ceramide / sec/ mol enzyme): 0.0024 mol C6-NBD-Ceramide / sec/ mol enzyme and 0.0025 mol C6-NBD-Ceramide / sec/ mol enzyme
C. neoformans Sgl1 [1]; 1.0 mol% C6-NBD-GlcCer
  Turnover (mol C6-NBD-Ceramide / sec/ mol enzyme): 0.0039 mol C6-NBD-Ceramide / sec/ mol enzyme and 0.0038 mol C6-NBD-Ceramide / sec/ mol enzyme
C. neoformans Sgl1 [1]; 1.5 mol% C6-NBD-GlcCer
  Turnover (mol C6-NBD-Ceramide / sec/ mol enzyme): 0.0051 mol C6-NBD-Ceramide / sec/ mol enzyme
C. neoformans Sgl1 [1]; 2.0 mol% C6-NBD-GlcCer
  Turnover (mol C6-NBD-Ceramide / sec/ mol enzyme): 0.0066 mol C6-NBD-Ceramide / sec/ mol enzyme and 0.0051 mol C6-NBD-Ceramide / sec/ mol enzyme
C. neoformans Sgl1 [1]; 2.5 mol% C6-NBD-GlcCer
  Turnover (mol C6-NBD-Ceramide / sec/ mol enzyme): 0.0073 mol C6-NBD-Ceramide / sec/ mol enzyme and 0.0067 mol C6-NBD-Ceramide / sec/ mol enzyme
C. neoformans Sgl1 [1]; 3.0 mol% C6-NBD-GlcCer
  Turnover (mol C6-NBD-Ceramide / sec/ mol enzyme): 0.0085 mol C6-NBD-Ceramide / sec/ mol enzyme and 0.0080 mol C6-NBD-Ceramide / sec/ mol enzyme
C. neoformans Sgl1 [1]; 3.5 mol% C6-NBD-GlcCer
  Turnover (mol C6-NBD-Ceramide / sec/ mol enzyme): 0.0076 mol C6-NBD-Ceramide / sec/ mol enzyme and 0.0074 mol C6-NBD-Ceramide / sec/ mol enzyme
C. neoformans Sgl1 [1]; 4.0 mol% C6-NBD-GlcCer
  Turnover (mol C6-NBD-Ceramide / sec/ mol enzyme): 0.0074 mol C6-NBD-Ceramide / sec/ mol enzyme and 0.0082 mol C6-NBD-Ceramide / sec/ mol enzyme
C. neoformans Sgl1 [1]; 4.5 mol% C6-NBD-GlcCer
  Turnover (mol C6-NBD-Ceramide / sec/ mol enzyme): 0.0064 mol C6-NBD-Ceramide / sec/ mol enzyme and 0.0070 mol C6-NBD-Ceramide / sec/ mol enzyme
C. neoformans Sgl1 [1]; 5.0 mol% C6-NBD-GlcCer
  Turnover (mol C6-NBD-Ceramide / sec/ mol enzyme): 0.0075 mol C6-NBD-Ceramide / sec/ mol enzyme and 0.0072 mol C6-NBD-Ceramide / sec/ mol enzyme
C. neoformans Sgl1 [1]
  Km, Michaelis-Menten best-fit value: 1.734 mol%
  Vmax, Michaelis-Menten best-fit value, Turnover: 0.01082 s⁻¹
  KM: 1.73 ± 0.37 mol%

## Cc1[nH]c2ccc(CNc3nccc(N)n3)cc2c1C [Hit 6]
C. neoformans Sgl1 [2]
  IC50: 2000 nM
[3]
  LD50 (lethal dose 50): 181.3 µM

## Cc1ccsc1CN(CCN(C)C)Cc1ccc2nonc2c1 [Hit 10]
[3]
  LD50 (lethal dose 50): 301.8 µM

## O=c1ccc2nc3ccc(O[C@@H]4O[C@H](CO)[C@@H](O)[C@H](O)[C@H]4O)cc3oc-2c1 [Resorufin 3β-D-glp, resorufin-3β-D-glucopyranoside, reference compound]
C. neoformans Sgl1 [4]; 0.8 µM Resorufin 3β-D-glp
  Turnover, min-1 (Mean): 0.1166 min⁻¹
C. neoformans Sgl1 [4]; 1.6 µM Resorufin 3β-D-glp
  Turnover, min-1 (Mean): 0.2022 min⁻¹
C. neoformans Sgl1 [4]; 3.125 µM Resorufin 3β-D-glp
  Turnover, min-1 (Mean): 0.2828 min⁻¹
C. neoformans Sgl1 [4]; 6.25 µM Resorufin 3β-D-glp
  Turnover, min-1 (Mean): 0.5182 min⁻¹
C. neoformans Sgl1 [4]; 12.5 µM Resorufin 3β-D-glp
  Turnover, min-1 (Mean): 0.7736 min⁻¹
C. neoformans Sgl1 [4]; 25 µM Resorufin 3β-D-glp
  Turnover, min-1 (Mean): 1.399 min⁻¹
C. neoformans Sgl1 [4]; 50 µM Resorufin 3β-D-glp
  Turnover, min-1 (Mean): 2.307 min⁻¹
C. neoformans Sgl1 [4]; 100 µM Resorufin 3β-D-glp
  Turnover, min-1 (Mean): 3.899 min⁻¹
C. neoformans Sgl1 [4]; res-glp as Sgl1 substrate, source data Fig S6i
  Vmax, Michaelis-Menten best-fit value, Turnover: 9.522 min⁻¹
C. neoformans Sgl1 [4]; res-glp as Sgl1 substrate, source data Fig S6i, read-out: Km, Michaelis-Menten best-fit value
  Km: 147 µM

## CC(C)[C@@H](C)/C=C/[C@@H](C)[C@H]1CC[C@H]2C3=CC=C4C[C@@H](O[C@@H]5O[C@H](CO)[C@@H](O)[C@H](O)[C@H]5O)CC[C@]4(C)[C@H]3CC[C@]12C [erg-glc, ergosterol 3β-D-glucoside]
C. neoformans Sgl1 [1]; 0.07 mol% Erg-glc
  Turnover (mol ergosterol / sec/ mol enzyme): 0.1064 mol ergosterol / sec/ mol enzyme and 0.1082 mol ergosterol / sec/ mol enzyme
C. neoformans Sgl1 [1]; 0.10 mol% Erg-glc
  Turnover (mol ergosterol / sec/ mol enzyme): 0.1849 mol ergosterol / sec/ mol enzyme and 0.1742 mol ergosterol / sec/ mol enzyme
C. neoformans Sgl1 [1]; 0.20 mol% Erg-glc
  Turnover (mol ergosterol / sec/ mol enzyme): 0.3045 mol ergosterol / sec/ mol enzyme and 0.2862 mol ergosterol / sec/ mol enzyme
C. neoformans Sgl1 [1]; 0.50 mol% Erg-glc
  Turnover (mol ergosterol / sec/ mol enzyme): 0.4688 mol ergosterol / sec/ mol enzyme and 0.4091 mol ergosterol / sec/ mol enzyme
C. neoformans Sgl1 [1]; 0.90 mol% Erg-glc
  Turnover (mol ergosterol / sec/ mol enzyme): 0.6080 mol ergosterol / sec/ mol enzyme and 0.5033 mol ergosterol / sec/ mol enzyme
C. neoformans Sgl1 [1]; 1.20 mol% Erg-glc
  Turnover (mol ergosterol / sec/ mol enzyme): 0.5944 mol ergosterol / sec/ mol enzyme and 0.5189 mol ergosterol / sec/ mol enzyme
C. neoformans Sgl1 [1]; 2.00 mol% Erg-glc
  Turnover (mol ergosterol / sec/ mol enzyme): 0.6438 mol ergosterol / sec/ mol enzyme and 0.6016 mol ergosterol / sec/ mol enzyme
C. neoformans Sgl1 [1]
  Km, Michaelis-Menten best-fit value: 0.3118 mol%
  Vmax, Michaelis-Menten best-fit value, Turnover: 0.721 s⁻¹
  KM: 0.31 ± 0.04 mol%

## O=c1ccc2nc3ccc(O)cc3oc-2c1 [resorufin]
C. neoformans Sgl1 [4]; substrate concentration 0.8 µM
  Picomol of resorufin produced: 13.6869 Picomol and 10.2624 Picomol and 15.333 Picomol and 8.2899 Picomol and 7.897 Picomol and 8.1513 Picomol and 7.834 Picomol and 9.766 Picomol
C. neoformans Sgl1 [4]; substrate concentration 1.6 µM
  Picomol of resorufin produced: 22.652 Picomol and 16.8084 Picomol and 22.0089 Picomol and 13.8077 Picomol and 14.311 Picomol and 13.7411 Picomol and 16.5589 Picomol and 17.8661 Picomol
C. neoformans Sgl1 [4]; substrate concentration 3.125 µM
  Picomol of resorufin produced: 38.3651 Picomol and 20.7516 Picomol and 22.1703 Picomol and 24.2149 Picomol and 22.4235 Picomol and 18.9404 Picomol and 21.8512 Picomol and 25.5122 Picomol
C. neoformans Sgl1 [4]; substrate concentration 6.25 µM
  Picomol of resorufin produced: 43.9839 Picomol and 34.2216 Picomol and 50.5101 Picomol and 33.7929 Picomol and 44.5629 Picomol and 40.9973 Picomol and 53.26 Picomol and 50.9019 Picomol
C. neoformans Sgl1 [4]; substrate concentration 12.5 µM
  Picomol of resorufin produced: 71.213 Picomol and 36.0642 Picomol and 41.6688 Picomol and 71.5524 Picomol and 70.9838 Picomol and 75.8794 Picomol and 76.3919 Picomol and 81.7237 Picomol
C. neoformans Sgl1 [4]; substrate concentration 25 µM
  Picomol of resorufin produced: 72.1659 Picomol and 113.232 Picomol and 127.381 Picomol and 122.744 Picomol and 134.032 Picomol and 119.303 Picomol and 123.078 Picomol and 139.365 Picomol
C. neoformans Sgl1 [4]; substrate concentration 50 µM
  Picomol of resorufin produced: 180.011 Picomol and 203.084 Picomol and 186.676 Picomol and 209.238 Picomol and 194.059 Picomol and 207.198 Picomol and 188.267 Picomol and 183.529 Picomol
C. neoformans Sgl1 [4]; substrate concentration 100 µM
  Picomol of resorufin produced: 305.03 Picomol and 313.72 Picomol and 318.728 Picomol and 338.834 Picomol and 336.378 Picomol and 332.942 Picomol and 323.184 Picomol and 353.074 Picomol
